Where “and” joins values, the source holds several entries; their conditions need not be identical. Equal values may be shown once. Where a SMILES comes first, the peptide text is derived from it. Where no end group is shown, it is not given here. [ ]: non-standard residue; d: D form. d2Nal = N[C@H](Cc1ccc2ccccc2c1)C(=O)O; Orn = NCCC[C@H](N)C(=O)O; Aib = CC(C)(N)C(=O)O; GABA = NCCCC(=O)O
Experiments:
[1] = target: T1, human ghrelin receptor type 1a (GHS-R1a) (Homo sapiens, UniProt Q92847); test: Receptor binding, displacement of radiolabelled ghrelin, HEK-293 cell membranes; conditions: for % INH, Ghrelin/GHS Antagonist Receptor Activity: concentration not given
T1 construct: expressed in transfected cells; host or cells: HEK-293 cells (membranes)
T1 sequence (Q92847 whole entry): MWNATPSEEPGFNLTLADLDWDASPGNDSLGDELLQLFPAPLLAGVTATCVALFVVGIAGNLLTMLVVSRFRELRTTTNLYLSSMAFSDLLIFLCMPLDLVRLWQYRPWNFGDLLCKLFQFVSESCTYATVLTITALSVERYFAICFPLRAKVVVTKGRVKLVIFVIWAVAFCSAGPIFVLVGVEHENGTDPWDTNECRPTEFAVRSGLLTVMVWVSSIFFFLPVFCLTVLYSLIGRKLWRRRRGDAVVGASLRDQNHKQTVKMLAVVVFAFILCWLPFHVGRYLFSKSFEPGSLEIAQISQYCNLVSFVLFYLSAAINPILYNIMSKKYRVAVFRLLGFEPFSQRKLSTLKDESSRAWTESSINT

[2] = target: T2, Ghrelin/GHRP/GHS Receptor (Rattus norvegicus, UniProt O08725); test: In vivo GH release in rat after i.v. peptide (serum GH by RIA)
T2 sequence (O08725 whole entry): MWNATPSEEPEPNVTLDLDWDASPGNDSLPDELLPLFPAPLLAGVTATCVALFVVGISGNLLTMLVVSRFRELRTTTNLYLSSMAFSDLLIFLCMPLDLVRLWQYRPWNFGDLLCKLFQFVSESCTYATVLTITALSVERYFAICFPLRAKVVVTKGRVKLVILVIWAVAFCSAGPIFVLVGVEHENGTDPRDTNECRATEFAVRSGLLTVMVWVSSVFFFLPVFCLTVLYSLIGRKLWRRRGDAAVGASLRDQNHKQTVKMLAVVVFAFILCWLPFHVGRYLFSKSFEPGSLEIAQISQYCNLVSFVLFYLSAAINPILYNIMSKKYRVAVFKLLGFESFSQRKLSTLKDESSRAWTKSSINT
Description: For the in vivo assay of GH Release in rat, immature female Sprague Dawley rats were obtained from Charles River from Wilmington, Mass. After arrival they were housed at 25° C. with a 14:10 h light:dark cycle. Water and Purina rat chow were available at libitum. Pups were weaned at 21 days of age.
Immature twenty six day old female Sprague Dawley rats, 3-6 rats per treatment dose, were pretreated with pentobarbital 20 minutes before iv injection of vehicle/peptide or peptide plus stimulator. Injection was made as a 0.1 ml solution. For the non-pentobarbital treated rat assay, peptides were administered iv into the tail vein of conscious rats. All animals were sacrificed by guillotine after iv peptide or vehicle. Trunk blood was collected at +10-15 minutes […], allowed to clot, centrifuged and serum stored until assayed for GH levels by RIA. The GH RIA reagents were distributed by the NIH. Control data was collected from rats treated with only the corresponding vehicle in the absence of peptide or stimulator. Control stimulated data was collected from rats treated with stimulator alone in the absence of any peptide.

[3] = target: T2, Ghrelin/GHRP/GHS Receptor; test: GH release from cell culture of pituitary cells; format: cell-based; parameters: After dispersion, the cells were collected by centrifugation, wash with DMEM and placed into culture well; endogenous in cells; host or cells: dispersed primary rat pituitary cells, 4 days in culture
Description: In vitro GH Release-Female rats of the CD-1 strain were housed in a constant temperature room at 24° C. with 14 h light and 10 h darkness. The rats were fed Purina Rat chow and water at libitum. All studies were started between 0800-1000 hours. Pituitaries of mature female Sprague Dawley rats were rapidly removed after decapitation, neurointermediate lobe discarded and then placed in a pH 7.4 buffer. The pituitaries were cut into ˜3-mm pieces and then transferred to a flask containing HEPS buffer with trypsin and incubated at 37° C. Cells were triturated several times during this period. After dispersion, the cells were collected by centrifugation, wash with DMEM and placed into culture well. Cell cultures were maintained for 4 days at 37° with 8% CO2 added to the incubator atmosphere. After 4 days in culture, cells were washed with lactated Ringer's solution adjusted to pH 7.2-7.4 and then vehicle, peptide alone or peptide plus stimulator was added to media. Incubation time was 60-120 minutes after which media was removed from each well for GH determination. The GH RIA reagents were distributed by the NIH. Control data was collected from cell cultures treated with only the corresponding vehicle in the absence of peptide or stimulator. Control stimulated data was collected from cell cultures treated with stimulator alone in the absence of any peptide.

[4] = Non-Pentobarbital Rats, peptide 30 μg i.v. + stimulator 10 μg
[5] = Non-Pentobarbital Rats, peptide alone 30 μg i.v.
[6] = Table 3, peptide alone 1 μg i.v.
[7] = Table 3, peptide alone 3 μg i.v.
[8] = Table 3, peptide alone 10 μg i.v.
[9] = Table 3, peptide alone 30 μg i.v.
[10] = Table 3, peptide alone 100 μg i.v.
[11] = peptide antagonist 3 μg i.v. + stimulator 1 μg
[12] = peptide antagonist 10 μg i.v. + stimulator 1 μg
[13] = peptide antagonist 30 μg i.v. + stimulator 1 μg
[14] = peptide antagonist 100 μg i.v. + stimulator 1 μg
[15] = Table 5, peptide alone 1 μg i.v.
[16] = Table 5, peptide alone 3 μg i.v.
[17] = Table 5, peptide alone 10 μg i.v.
[18] = Table 5, peptide alone 30 μg i.v.

CSCC[C@H](NC(=O)CN)C(=O)N[C@@H](C)C(=O)N[C@H](C)C(=O)N[C@H](Cc1ccc2ccccc2c1)C(=O)N[C@@H](C)C(=O)N[C@@H](Cc1c[nH]c2ccccc12)C(=O)N[C@H](Cc1ccccc1)C(=O)N[C@@H](CCCCN)C(N)=O [#5, GlyMetAlaDAlaDβNalAlaTrpDPheLysNH2] (HELM PEPTIDE1{G.M.A.[dA].[O=C([C@@H](Cc1ccc2ccccc2c1)N[*:1])[*:2]].A.W.[dF].K.[am]}$$$$V2.0; N-terminus assumed)
IC50 [1]: 296 nM | Ki [1]: 166 nM | % INH, Ghrelin/GHS Antagonist Receptor Activity [1]: 94%

CSCC[C@H](NC(=O)CN)C(=O)N[C@@H](C)C(=O)N[C@H](C)C(=O)N[C@H](Cc1ccc2ccccc2c1)C(=O)N[C@H](CCCCN)C(=O)N[C@@H](Cc1c[nH]c2ccccc12)C(=O)N[C@H](Cc1ccccc1)C(=O)N[C@@H](CCCCN)C(N)=O [#6a, GlyMetAlaDAlaDβNalDLysTrpDPheLysNH2] (HELM PEPTIDE1{G.M.A.[dA].[O=C([C@@H](Cc1ccc2ccccc2c1)N[*:1])[*:2]].[dK].W.[dF].K.[am]}$$$$V2.0; N-terminus assumed)
IC50 [1]: 707 nM | Ki [1]: 395 nM | % INH, Ghrelin/GHS Antagonist Receptor Activity [1]: 89%

[dA][d2Nal]AW[dF]K-NH2 [reference compound]
Stimulated Control GH release (stimulator alone) ([2]; DAla-DβNal-Ala-Trp-DPhe-Lys-NH2 0.3 μg, rat, Table 2): 1412 ± 400 ng/mL and 2253 ± 252 ng/mL | Stimulated Control GH release (stimulator alone) ([2]; DAla-DβNal-Ala-Trp-DPhe-Lys-NH2 1 μg, rat, Table 2): 3214 ± 276 ng/mL and 3105 ± 429 ng/mL and 2406 ± 288 ng/mL and 2825 ± 134 ng/mL and 3104 ± 429 ng/mL | Stimulated Control GH release (stimulator alone) ([2]; Table 4, Non-Pentobarbital Rats, DAla-DβNal-Ala-Trp-DPhe-Lys-NH2 10 μg): 72 ± 9 ng/mL | Stimulated Control GH release (stimulator alone) ([2]; Table 4, Pentobarbital Rats, DAla-DβNal-Ala-Trp-DPhe-Lys-NH2 0.3 μg): 5052 ± 511 ng/mL | Stimulated Control GH release (stimulator alone) ([2]; Table 4, Pentobarbital Rats, DAla-DβNal-Ala-Trp-DPhe-Lys-NH2 1 μg): 4950 ± 98 ng/mL | Stimulated Control GH release (stimulator alone) ([3]; Table 6, DAla-DβNal-Ala-Trp-DPhe-Lys-NH2 10 ng/ml): 2420 ± 0 ng/mL and 2811 ± 229 ng/mL and 2385 ± 8 ng/mL | Stimulated Control GH release (stimulator alone) ([3]; Table 9, DAla-DβNal-Ala-Trp-DPhe-Lys-NH2 1 ng/ml): 1232 ± 34 ng/mL | Stimulated Control GH release (stimulator alone) ([3]; Table 10, DAla-DβNal-Ala-Trp-DPhe-Lys-NH2 1 ng/ml): 905 ± 6 ng/mL and 1153 ± 36 ng/mL and 1216 ± 26 ng/mL and 1461 ± 58 ng/mL and 1016 ± 18 ng/mL and 859 ± 4 ng/mL and 1060 ± 24 ng/mL | Stimulated Control GH release (stimulator alone) ([3]; Table 11, DAla-DβNal-Ala-Trp-DPhe-Lys-NH2 1 ng/ml): 905 ± 6 ng/mL and 947 ± 11 ng/mL and 947 ± 33 ng/mL and 1016 ± 18 ng/mL

Y[dA]F[Aib]-NH2 [1-Tyr-DAla-Phe-Aib-NH2]
Stimulated GH release (P + S) [2, 4]: 23 ± 5 ng/mL | Unstimulated GH release (−S) [2, 5]: 18 ± 1 ng/mL

DcyclohexylAla-Ala-Phe-DTrp-Lys-NH2 [3-DcyclohexylAla-Ala-Phe-DTrp-Lys-NH2]
Unstimulated Basal GH release [2, 6]: 199 ± 63 ng/mL | Unstimulated Basal GH release [2, 7]: 266 ± 68 ng/mL | Unstimulated Basal GH release [2, 8]: 199 ± 23 ng/mL | Unstimulated Basal GH release [2, 9]: 346 ± 82 ng/mL | Unstimulated Basal GH release [2, 10]: 350 ± 61 ng/mL

H[dW]FW[dF]K-NH2 [8-His-DTrp-Phe-Trp-DPhe-Lys-NH2]
Unstimulated Basal GH release [2, 6]: 67 ± 14 ng/mL | Unstimulated Basal GH release [2, 7]: 141 ± 53 ng/mL | Unstimulated Basal GH release [2, 8]: 197 ± 70 ng/mL | Unstimulated Basal GH release [2, 9]: 509 ± 48 ng/mL

Glyψ[CH2NH]-DβNal-DLys-Trp-DPhe-Lys-NH2
Stimulated GH release ([2]; peptide antagonist 1 μg i.v. + stimulator 1 μg): 2305 ± 320 ng/mL | Stimulated GH release [2, 11]: 1990 ± 196 ng/mL | Stimulated GH release [2, 12]: 1550 ± 284 ng/mL | Stimulated GH release [2, 13]: 946 ± 133 ng/mL | Stimulated GH release [2, 14]: 462 ± 122 ng/mL

Alaψ[CH2NH]-DβNal-Ala-Trp-DPhe-Lys-NH2 [6-Alaψ[CH2NH]-DβNal-Ala-Trp-DPhe-Lys-NH2]
Stimulated GH release [2, 11]: 2771 ± 157 ng/mL | Stimulated GH release [2, 12]: 2341 ± 416 ng/mL | Stimulated GH release [2, 13]: 1948 ± 450 ng/mL | Stimulated GH release [2, 14]: 1639 ± 221 ng/mL

αγAbu-DTrp-DTrp-Lys-NH2 [2-αγAbu-DTrp-DTrp-Lys-NH2]
Unstimulated Basal GH release [2, 15]: 57 ± 7 ng/mL | Unstimulated Basal GH release [2, 16]: 84 ± 18 ng/mL | Unstimulated Basal GH release [2, 17]: 62 ± 15 ng/mL

HW[dA][dW]FK-NH2 [11-His-Trp-DAla-DTrp-Phe-LysNH2]
Unstimulated Basal GH release [2, 6]: 204 ± 44 ng/mL | Unstimulated Basal GH release [2, 7]: 127 ± 44 ng/mL | Unstimulated Basal GH release [2, 8]: 83 ± 5 ng/mL

[GABA][dW][dW][Orn]-NH2 [9-γAbu-DTrp-DTrp-Orn-NH2]
Unstimulated Basal GH release [2, 15]: 82 ± 28 ng/mL | Unstimulated Basal GH release [2, 17]: 90 ± 5 ng/mL | Unstimulated Basal GH release [2, 18]: 113 ± 32 ng/mL

[dK][d2Nal]AW[dF]K-NH2 [1-DLys-DβNal-Ala-Trp-DPhe-Lys-NH2]
Stimulated GH release (P + S) ([2]; Pentobarbital Rats, peptide 3 μg i.v. (grid head; alignment uncertain) + stimulator 0.3 μg): 5232 ± 346 ng/mL | Stimulated GH release (P + S) ([2]; Pentobarbital Rats, peptide 10 μg i.v. (grid head; alignment uncertain) + stimulator 0.3 μg): 3404 ± 396 ng/mL | Stimulated GH release (P + S) ([2]; Pentobarbital Rats, peptide 30 μg i.v. + stimulator 0.3 μg): 704 ± 169 ng/mL | Unstimulated GH release (−S) ([2]; Pentobarbital Rats, peptide alone 3 μg i.v. (grid head; alignment uncertain)): 616 ± 169 ng/mL | Unstimulated GH release (−S) ([2]; Pentobarbital Rats, peptide alone 10 μg i.v. (grid head; alignment uncertain)): 847 ± 17 ng/mL | Unstimulated GH release (−S) ([2]; Pentobarbital Rats, peptide alone 30 μg i.v.): 629 ± 146 ng/mL | Unstimulated GH release (−S) ([2]; Pentobarbital Rats, peptide alone 100 μg i.v.): 228 ± 45 ng/mL

[dA][d2Nal][dA][dW]FK-NH2 [9-DAla-DβNal-DAla-DTrp-Phe-Lys-NH2]
Unstimulated Basal GH release [2, 6]: 184 ± 55 ng/mL | Unstimulated Basal GH release [2, 7]: 467 ± 201 ng/mL | Unstimulated Basal GH release [2, 8]: 244 ± 107 ng/mL

[dA]A[dA][dW]FK-NH2 [6-DAla-Ala-DAla-DTrp-Phe-Lys-NH2]
Unstimulated Basal GH release [2, 17]: 228 ± 76 ng/mL | Unstimulated Basal GH release [2, 18]: 172 ± 14 ng/mL | Unstimulated Basal GH release ([2]; Table 5, peptide alone 100 μg i.v.): 153 ± 45 ng/mL

DAla-DcyclohexylAla-Ala-Phe-DPhe-Nle-NH2
Unstimulated Basal GH release [2, 6]: 435 ± 152 ng/mL | Unstimulated Basal GH release [2, 7]: 195 ± 34 ng/mL | Unstimulated Basal GH release [2, 8]: 250 ± 41 ng/mL | Unstimulated Basal GH release [2, 9]: 393 ± 51 ng/mL | Unstimulated Basal GH release [2, 10]: 697 ± 75 ng/mL

αγAbu-DTrp-DTrp-Orn-NH2 [3-αγAbu-DTrp-DTrp-Orn-NH2]
Unstimulated Basal GH release [2, 15]: 118 ± 16 ng/mL | Unstimulated Basal GH release [2, 17]: 126 ± 27 ng/mL | Unstimulated Basal GH release [2, 18]: 79 ± 31 ng/mL

Alaψ[CH2NH]His-DTrp-Ala-Trp-DPhe-Lys-NH2
Unstimulated Basal GH release [2, 15]: 127 ± 32 ng/mL | Unstimulated Basal GH release [2, 16]: 147 ± 37 ng/mL

αγAbu-DTrp-DTrp-Ser-NH2 [1-αγAbu-DTrp-DTrp-Ser-NH2]
Unstimulated Basal GH release [2, 15]: 80 ± 35 ng/mL | Unstimulated Basal GH release [2, 17]: 62 ± 15 ng/mL | Unstimulated Basal GH release [2, 18]: 67 ± 8 ng/mL

DThr-DαNal-DTrp-DPro-Arg-NH2 [5-DThr-DαNal-DTrp-DPro-Arg-NH2]
Unstimulated Basal GH release [2, 15]: 60 ± 5 ng/mL | Unstimulated Basal GH release [2, 16]: 130 ± 24 ng/mL | Unstimulated Basal GH release [2, 17]: 134 ± 31 ng/mL

Tyr-DAla-Sar-NMePhe-NH2 [2-Tyr-DAla-Sar-NMePhe-NH2]
Stimulated GH release (P + S) [2, 4]: 24 ± 6 ng/mL | Unstimulated GH release (−S) [2, 5]: 18 ± 4 ng/mL

From patent US9315546B2, “Growth hormone secretatogue receptor antagonists and uses thereof” (The Administrators of the Tulane Educational Fund, priority 2010, dated 2016)
